What was measured:
Experiment in all cases: relative viability vs DMSO control (72 h) (fraction); higher = more viable cells
SW872 = test system: SW872
Procedure, shortened: (§1)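 A 5 µM positive control and 0.1% DMSO vehicle ran alongside sarcoma cell lines seeded in 384-well plates to reach 80–90% confluence. Serially diluted compound, 2.5 µl from source plates of 10 mM to 0.0002 mM, was added after 24 h, and the plates were held 72 h at 37 °C, 5% CO2. Relative viability was worked out from ATPLite readings as percent growth averaged over up to triplicate wells. The values were rescaled so that 1 is full and 0 is none.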

VA-ES-BJ = test system: VA-ES-BJ
Procedure, shortened: as §1

SW1353 = test system: SW1353
Procedure, shortened: as §1

A204 = test system: A204
Procedure, shortened: as §1

SK-LMS-1 = test system: SK-LMS-1
Procedure, shortened: as §1

G401 = test system: G401
Procedure, shortened: as §1

KHOS-240S = test system: KHOS-240S
Procedure, shortened: as §1

RD = test system: RD
Procedure, shortened: as §1

HS729 = test system: HS729
Procedure, shortened: as §1

SW982 = test system: SW982
Procedure, shortened: as §1

MES-SA = test system: MES-SA
Procedure, shortened: as §1

SK-ES-1 = test system: SK-ES-1
Procedure, shortened: as §1

C1=N/C2=N/c3ccc(OCCN4CCCC4)c(c3)COC/C=C/COCc3cccc(c3)C(=C1)N2 [Pacritinib]
Settings	relative viability
A204, 0.00017 µM	1.07
A204, 0.00051 µM	1.05
A204, 0.00152 µM	1.07
A204, 0.00457 µM	1.1
A204, 0.01372 µM	1.07
A204, 0.04115 µM	1.02
A204, 0.1235 µM	0.918
A204, 0.3704 µM	0.654
A204, 1.111 µM	0.398
A204, 3.333 µM	0.0367
A204, 10 µM	0.0523
G401, 0.00017 µM	1.05
G401, 0.00051 µM	1.09
G401, 0.00152 µM	1.02
G401, 0.00457 µM	1.06
G401, 0.01372 µM	1.03
G401, 0.04115 µM	1
G401, 0.1235 µM	0.966
G401, 0.3704 µM	0.868
G401, 1.111 µM	0.552
G401, 3.333 µM	0.044
G401, 10 µM	0.0119
HS729, 0.00017 µM	1.1
HS729, 0.00051 µM	1.055
HS729, 0.00152 µM	1.03
HS729, 0.00457 µM	1
HS729, 0.01372 µM	1.02
HS729, 0.04115 µM	0.9592
HS729, 0.1235 µM	0.947
HS729, 0.3704 µM	0.928
HS729, 1.111 µM	0.698
HS729, 3.333 µM	0.576
HS729, 10 µM	0.232
KHOS-240S, 0.00017 µM	1.05
KHOS-240S, 0.00051 µM	1.08
KHOS-240S, 0.00152 µM	1.08
KHOS-240S, 0.00457 µM	1.08
KHOS-240S, 0.01372 µM	1.09
KHOS-240S, 0.04115 µM	1.06
KHOS-240S, 0.1235 µM	1.06
KHOS-240S, 0.3704 µM	0.985
KHOS-240S, 1.111 µM	0.5636
KHOS-240S, 3.333 µM	0.0954
KHOS-240S, 10 µM	0.108
MES-SA, 0.00017 µM	0.966
MES-SA, 0.00051 µM	0.9661
MES-SA, 0.00152 µM	0.953
MES-SA, 0.00457 µM	0.951
MES-SA, 0.01372 µM	0.938
MES-SA, 0.04115 µM	0.936
MES-SA, 0.1235 µM	0.937
MES-SA, 0.3704 µM	0.794
MES-SA, 1.111 µM	0.46
MES-SA, 3.333 µM	0.0101
MES-SA, 10 µM	0.00167
RD, 0.00017 µM	1.08
RD, 0.00051 µM	1.1
RD, 0.00152 µM	1.12
RD, 0.00457 µM	1.11
RD, 0.01372 µM	1.13
RD, 0.04115 µM	1.111
RD, 0.1235 µM	1.07
RD, 0.3704 µM	0.823
RD, 1.111 µM	0.462
RD, 3.333 µM	0.158
RD, 10 µM	0.144
SK-ES-1, 0.00017 µM	1.07
SK-ES-1, 0.00051 µM	1.06
SK-ES-1, 0.00152 µM	1.06
SK-ES-1, 0.00457 µM	1.02
SK-ES-1, 0.01372 µM	1.07
SK-ES-1, 0.04115 µM	0.989
SK-ES-1, 0.1235 µM	0.945
SK-ES-1, 0.3704 µM	0.593
SK-ES-1, 1.111 µM	0.222
SK-ES-1, 3.333 µM	0.00983
SK-ES-1, 10 µM	0.00643
SK-LMS-1, 0.00017 µM	1.1
SK-LMS-1, 0.00051 µM	1.136
SK-LMS-1, 0.00152 µM	1.08
SK-LMS-1, 0.00457 µM	1.085
SK-LMS-1, 0.01372 µM	1.08
SK-LMS-1, 0.04115 µM	1.08
SK-LMS-1, 0.1235 µM	1.1
SK-LMS-1, 0.3704 µM	1.116
SK-LMS-1, 1.111 µM	0.959
SK-LMS-1, 3.333 µM	0.539
SK-LMS-1, 10 µM	0.2186
SW872, 0.00017 µM	1.11
SW872, 0.00051 µM	1.08
SW872, 0.00152 µM	1.08
SW872, 0.00457 µM	1.1
SW872, 0.01372 µM	1.1
SW872, 0.04115 µM	1.06
SW872, 0.1235 µM	1.02
SW872, 0.3704 µM	0.839
SW872, 1.111 µM	0.541
SW872, 3.333 µM	0.131
SW872, 10 µM	0.0932
SW982, 0.00017 µM	1.04
SW982, 0.00051 µM	1.08
SW982, 0.00152 µM	1.12
SW982, 0.00457 µM	1.09
SW982, 0.01372 µM	1.09
SW982, 0.04115 µM	1.11
SW982, 0.1235 µM	0.923
SW982, 0.3704 µM	0.573
SW982, 1.111 µM	0.296
SW982, 3.333 µM	0.157
SW982, 10 µM	0.153
SW1353, 0.00017 µM	1.06
SW1353, 0.00051 µM	1.091
SW1353, 0.00152 µM	1.08
SW1353, 0.00457 µM	1.03
SW1353, 0.01372 µM	1
SW1353, 0.04115 µM	0.981
SW1353, 0.1235 µM	0.966
SW1353, 0.3704 µM	0.882
SW1353, 1.111 µM	0.775
SW1353, 3.333 µM	0.178
SW1353, 10 µM	0.0164
VA-ES-BJ, 0.00017 µM	1.11
VA-ES-BJ, 0.00051 µM	1.11
VA-ES-BJ, 0.00152 µM	1.09
VA-ES-BJ, 0.00457 µM	1.07
VA-ES-BJ, 0.01372 µM	1.06
VA-ES-BJ, 0.04115 µM	1.08
VA-ES-BJ, 0.1235 µM	1.02
VA-ES-BJ, 0.3704 µM	0.855
VA-ES-BJ, 1.111 µM	0.149
VA-ES-BJ, 3.333 µM	0.0927
VA-ES-BJ, 10 µM	0.0817

— the supplement of paper PMC10883282
